Assay results taken from US6958141B2, “Rhenium and technetium complexes containing a hypoxia-localizing moiety” (Bracco International B.V., priority 1991, dated 2005).

Key:
[1] = tested on: hypoxic ischemic border zone; experiment: Rabbit focal myocardial ischemia model (LAD occlusion), double-label autoradiography; format: in vivo; conditions: permanent LAD coronary artery ligation, intravenous tracer, heart sections, listed as 99mTc complex of the ligand described in Example 1
Description: A model of focal myocardial ischemia in the rabbit was developed, using permanent ligation of the left anterior descending (LAD) coronary artery. The model consisted of two studies. In the first, relative regional myocardial blood flow (MBF) and relative regional myocardial rate of glucose metabolism (MMRgl) were determined by autoradiography using a double-label study with the flow tracer ^99mTcCl(CDO)3MeB (R. K. Narra et al., J. Nucl. Med., 1989; 30:1830-1837) and ^14C-deoxy-glucose for MMRgl (L. Sokoloff et al., J. Neurochem., 1977, 28, 897-916). ^14C-deoxyglucose and the ^99mTc-hypoxia-localizing tracer were administered to a second group of rabbits with LAD coronary artery occlusion.
After the surgical preparation and 20 minutes of LAD occlusion, ^14C-deoxyglucose (130-150 μCi) was injected as an intravenous bolus, and timed arterial blood samples were obtained. Twenty-five minutes later, ^99mTcCl(CDO)3MeB (10-12 mCi) was administered intravenously. Five minutes later, the rabbits were sacrificed by intravenous injection of Nembutal and potassium chloride. The heart was excised, frozen in liquid Freon-22, and 20 μm coronal sections obtained with a Microtome. Autoradiographs were obtained on all sections. For the first exposure (˜14 hours duration) of Kodak XAR film, extra heavy duty aluminum foil was interposed between the tissue and film to block completely the radiation emanating from ^14C to obtain the MBF information derived from ^99mTcCl(CDO)3MeB alone. After three days (to allow for decay of ^99mTc); a second autoradiograph was obtained without foil. The second exposure lasted 6-8 days, and,provided an image of the regional distribution of ^14C-deoxyglucose.
In a separate experiment using the rabbit LAD occlusion model and the double-label autoradiography procedures described above, the performance of the ^99mTc complex of the ligand described in Example 1 was compared to that of ^14C-misonidazole.

[2] = Biodistribution of ^99mTc-complexes in normal (normoxic) Sprague-Dawley rats; format: in vivo; conditions: MEAN n=4
Description: Twelve Sprague-Dawley rats were anesthetized with Nembutal (50 mg/kg) and injected with 0.1 mL (20 μCi) of radioactivity via the jugular vein. At 1 minute, 5 minutes and 60 minutes after administration of the radiotracers (n=4 for all time points), the animals were sacrificed by exsanguination, and the target tissues removed, weighed and assayed for radioactivity. The rats were allowed to respire room air throughout the course of the study.

hypoxic border zone = experiment: Rat focal cerebral ischemia model (MCA occlusion), double-label autoradiography; format: in vivo, spontaneously hypertensive rats (SHR); conditions: SHR, injected 1 hour or five days after MCA occlusion, both time points
Description: A model of focal cerebral ischemia involving tandem occlusion of the internal carotid artery and the ipsilateral middle cerebral artery (MCA) in spontaneously hypertensive rats (SHR) was characterized using the double-label autoradiography procedure described in Example 10. […] Following surgery, which was performed under Halothane anesthesia, the rats were allowed to recover and one hour after the MCA occlusion, ^14C-deoxyglucose was injected as an IV bolus and timed arterial samples were obtained. Twenty-five minutes after ^14C-deoxyglucose injection, ^99mTcCl(DMG)32MP was injected as an IV bolus and the rat was sacrificed 15 seconds later. The brain was rapidly removed and sections and autoradiograms were obtained as described in Example 10. As found in Example 10 for the rabbit LAD occlusion model, the ischemic territory was bordered by a rim of tissue in which glycolysis was elevated. […] Nevertheless, it was clear that the ischemic region is surrounded by a border zone of increased glycolysis. In a second series of experiments, the ^99mTc complex of the ligand described in Example 1 and ^14C-deoxyglucose were co-injected 1 hour or five days after MCA occlusion.

Mitochondria = experiment: Studies in isolated mitochondria; parameters: species or system male Sprague Dawley rats; conditions: 37° C. for 60 minutes, means ±S.E.M.
Description: Mitochondria were prepared from hearts of male Sprague Dawley rats (200 g) using the isolation procedure of Fuller et al., (E. O. Fuller, D. I. Golderg, J. W. Starnes, M. Sacks, and M. J. Delavoria-Papadopoulos, Mol. Cell. Cardiol., 17:71, 1985). The heart was excised from anesthetized rats and trimmed free of the atria and great vessels. The ventricles were minced in ice-cold isolation medium (0.225 M mannitol, 75 mM sucrose, 1.0 mM EGTA and 10 mM MOPS, pH 7.4), briefly exposed to the proteolytic enzyme preparation, Nagase (Enzyme Development Corp., New York, N.Y.), and homogenized with a polytron. The mitochondria were separated from the remainder of the broken cells using density gradient centrifugation.
Three nitroimidazole compounds were incubated at 37° C. for 60 minutes in isolated mitochodria. Hypoxia and anoxia were induced as outlined in Example 12.
Values are given in percent of total radioactivity within an aliquot and represent means ±S.E.M. Compounds were tested using the same preparation of mitochondria.

[3] = 1 Min. after jugular vein injection
[4] = 5 Min. after jugular vein injection
[5] = 60 Min. after jugular vein injection

Q: Which “regional myocardial distribution pattern (autoradiography)” value [1] does the source give for “[^99mTc]Oxo[[3,3,9,9-tetramethyl-1-(2-nitro-1H-imidazo-1-yl)-4,8-diazaundecane-2,10-dione dioximato]-(3-)-N,N′,N″,N′″]technetium(V) [^99mTc complex from ligand in Ex. 1]” here?
A: The value was “high uptake in the hypoxic border zone of the ischemic territory and low uptake in normoxic regions”.

Q: What about the “Percent ID/g Bladder” value [2, 3] of the same substance?
A: The value was 0.15 Percent ID/g.

Q: What about the “Percent ID/g Blood” value [2, 3] of the same substance?
A: Its value is 0.47 Percent ID/g.

Q: What about the “Percent ID/g Bone” value [2, 3] of the same substance?
A: The value was 0.37 Percent ID/g.

Q: And the “Percent ID/g Brain” value [2, 3]?
A: Its value is 0.30 Percent ID/g.

Q: And the “Percent ID/g Heart” value [2, 3]?
A: Its value is 1.32 Percent ID/g.

Q: What about the “Percent ID/g Kidneys” value [2, 3] of the same substance?
A: The value was 2.59 Percent ID/g.

Q: What about the “Percent ID/g Liver” value [2, 3] of the same substance?
A: The value was 2.06 Percent ID/g.

Q: What about the “Percent ID/g Lower Intestine” value [2, 3] of the same substance?
A: The value was 0.50 Percent ID/g.

Q: What about the “Percent ID/g Lungs” value [2, 3] of the same substance?
A: Its value is 0.71 Percent ID/g.

Q: What about the “Percent ID/g Muscle” value [2, 3] of the same substance?
A: Its value is 0.25 Percent ID/g.

Q: What about the “Percent ID/g Spleen” value [2, 3] of the same substance?
A: The value was 0.84 Percent ID/g.

Q: What about the “Percent ID/g Stomach” value [2, 3] of the same substance?
A: The value was 0.67 Percent ID/g.

Q: And the “Percent ID/g Thymus” value [2, 3]?
A: Its value is 0.55 Percent ID/g.

Q: And the “Percent ID/g Thyroid” value [2, 3]?
A: Its value is 0.65 Percent ID/g.

Q: What about the “Percent ID/g Upper Intestine” value [2, 3] of the same substance?
A: The value was 1.13 Percent ID/g.

Q: What about the “Percent ID/g Bladder” value [2, 4] of the same substance?
A: The value was 0.68 Percent ID/g.

Q: And the “Percent ID/g Blood” value [2, 4]?
A: Its value is 0.36 Percent ID/g.

Q: And the “Percent ID/g Bone” value [2, 4]?
A: The value was 0.23 Percent ID/g.

Q: What about the “Percent ID/g Brain” value [2, 4] of the same substance?
A: The value was 0.11 Percent ID/g.

Q: What about the “Percent ID/g Heart” value [2, 4] of the same substance?
A: Its value is 0.34 Percent ID/g.

Q: And the “Percent ID/g Kidneys” value [2, 4]?
A: The value was 1.15 Percent ID/g.

Q: And the “Percent ID/g Liver” value [2, 4]?
A: Its value is 3.63 Percent ID/g.

Q: What about the “Percent ID/g Lower Intestine” value [2, 4] of the same substance?
A: The value was 0.40 Percent ID/g.

Q: What about the “Percent ID/g Lungs” value [2, 4] of the same substance?
A: Its value is 0.39 Percent ID/g.

Q: What about the “Percent ID/g Muscle” value [2, 4] of the same substance?
A: Its value is 0.14 Percent ID/g.

Q: What about the “Percent ID/g Spleen” value [2, 4] of the same substance?
A: Its value is 0.45 Percent ID/g.

Q: And the “Percent ID/g Stomach” value [2, 4]?
A: The value was 0.56 Percent ID/g.

Q: And the “Percent ID/g Thymus” value [2, 4]?
A: Its value is 0.25 Percent ID/g.

Q: And the “Percent ID/g Thyroid” value [2, 4]?
A: The value was 0.77 Percent ID/g.

Q: And the “Percent ID/g Upper Intestine” value [2, 4]?
A: The value was 0.98 Percent ID/g.

Q: What about the “Percent ID/g Bladder” value [2, 5] of the same substance?
A: The value was 2.84 Percent ID/g.

Q: What about the “Percent ID/g Blood” value [2, 5] of the same substance?
A: The value was 0.28 Percent ID/g.

Q: What about the “Percent ID/g Bone” value [2, 5] of the same substance?
A: The value was 0.11 Percent ID/g.

Q: What about the “Percent ID/g Brain” value [2, 5] of the same substance?
A: Its value is 0.02 Percent ID/g.

Q: And the “Percent ID/g Heart” value [2, 5]?
A: The value was 0.09 Percent ID/g.

Q: And the “Percent ID/g Kidneys” value [2, 5]?
A: The value was 0.45 Percent ID/g.

Q: What about the “Percent ID/g Liver” value [2, 5] of the same substance?
A: Its value is 2.45 Percent ID/g.

Q: What about the “Percent ID/g Lower Intestine” value [2, 5] of the same substance?
A: Its value is 0.36 Percent ID/g.

Q: What about the “Percent ID/g Lungs” value [2, 5] of the same substance?
A: The value was 0.16 Percent ID/g.

Q: What about the “Percent ID/g Muscle” value [2, 5] of the same substance?
A: Its value is 0.05 Percent ID/g.

Q: And the “Percent ID/g Spleen” value [2, 5]?
A: Its value is 0.23 Percent ID/g.

Q: And the “Percent ID/g Stomach” value [2, 5]?
A: The value was 1.80 Percent ID/g.

Q: And the “Percent ID/g Thymus” value [2, 5]?
A: The value was 0.05 Percent ID/g.

Q: What about the “Percent ID/g Thyroid” value [2, 5] of the same substance?
A: The value was 0.15 Percent ID/g.

Q: What about the “Percent ID/g Upper Intestine” value [2, 5] of the same substance?
A: Its value is 4.60 Percent ID/g.

Q: What about the “uptake in brain autoradiograms” value (hypoxic border zone) of the same substance?
A: Its value is “increased uptake in the hypoxic border zone relative to surrounding normoxic tissue”.

Q: What about the “percentage of radioactivity associated with the mitochondria, Hypoxia” value (Mitochondria) of the same substance?
A: Its value is 39.2 ± 1.0% of total radioactivity within an aliquot.

Q: And the “percentage of radioactivity associated with the mitochondria, Normoxia” value (Mitochondria)?
A: Its value is 27.8 ± 1.2% of total radioactivity within an aliquot.

Q: And the Hypoxia/normoxia (Mitochondria; radioactivity associated with mitochondria)?
A: Its Hypoxia/normoxia is 1.4 ± 0.1.
